Columns and labels:
[1] = tested on: MiaPaCa Human Pancreatic Tumor Xenograft; assay: Troxacitabine ± Gemcitabine vs. MiaPaCa human pancreatic tumor xenograft; conditions: for # of Toxic Deaths / Mice with Complete Shrinkage / Mice with Partial Shrinkage: n 10
Method: (§1) Female nude mice weighing approximately 20 g were implanted s.c. by trocar with fragments of human tumor harvested from s.c. growing tumors in nude mice hosts. When the tumors were approximately 58mg in size (12 days following inoculation), the animals were pair-matched into treatment and control groups. Each group contained 10 mice, each of which was ear-tagged and followed individually throughout the experiment. Initial doses were given on Day 1 following pair matching. […] Gemcitabine (Eli Lilly, Lot# 4MT16M) was administered intraperitoneally at 40 mg/kg and 80 mg/kg on a q3d×4 schedule.
(§2) Mice were weighed twice weekly, and tumor measurements were taken by calipers twice weekly, starting on Day 1. These tumor measurements were converted to mg tumor weight by a well-known formula, (W^2×L)/2. The experiment was terminated when the control group tumor size reached an average of 1 gram. Upon termination, the mice were weighed, sacrificed and their tumors were excised. The tumors were weighed, and the mean tumor weight per group was calculated.
(§3) Some drugs may cause tumor shrinkage in these tumor enograft models. With these agents, the final weight of a given tumor is subtracted from its own weight at the start of treatment on Day 1. This difference, divided by the initial tumor weight, is converted to percent shrinkage. The mean percent tumor shrinkage can be calculated from data from the mice in a group that experienced tumor regressions. If the tumor completely disappears in a mouse, it is considered a complete regression or complete tumor shrinkage.

[2] = tested on: Panc-01 Human Pancreatic Tumor Xenograft; assay: Troxacitabine ± Gemcitabine vs. Panc-01 human pancreatic tumor xenograft; conditions: for Deaths / Mice with Complete Shrinkage / Mice with Partial Shrinkage: n = 10
Method: as §1, §2, §3

[3] = Determination of maximum tolerated dose (MTD) in non-tumored mice; assay type: in vivo; conditions: i.v. qd×5 schedule
[4] = tested on: patients with refractory/relapsed leukemia; assay: β-L OddC alone in patients with refractory/relapsed leukemia; assay type: in vivo, human; conditions: single agent; 16 evaluable AML patients
Method: A study was conducted to investigate the activity of β-L OddC as a single agent in patients with refractory/relapsed leukemia. The study involved the treatment of patients with refractory or relapsed acute myeloid (AML) or lymphocytic (ALL) leukemia, myelodysplastic syndromes (MDS), or chronic myelogenous leukemia in blastic Phase (CML-BP). A total of 42 patients were treated in the study. As a result, a total of 39 patients were assessable for responses.

CCRF-CEM cells = assay: MTT assay with CalcuSyn median-effect analysis, Troxacitabine/araC on CCRF-CEM cells; assay type: cell-based
Excerpt: The absorbance at 490 nm is directly proportional to the number of living cells in culture at a certain time point. […] Enz. Regulation 22, 1984, pp.27-55. […] Combinations of drugs were then generated around the IC50's of each drug to allow a constant ratio in order to determine if the combination was additive, synergistic or antagonistic. […] A CI below 1 is an indication of synergy, while a CI equal to 1 represents additivity, and a CI above 1 indicates antagonism.

## Nc1ccn([C@@H]2O[C@H](CO)[C@@H](O)C2(F)F)c(=O)n1 [Gemcitabine, reference compound]
[1]; 40 mg/kg i.p., q3d × 4
  % Tumor Growth Inhibition: 37.3%
  Final Tumor Wt. (Mean ± SEM): 733.0 ± 98.7 mg
  # of Toxic Deaths: 0
  Mice with Complete Shrinkage: 0
  Mice with Partial Shrinkage: 0
[1]; 80 mg/kg i.p., q3d × 4
  % Tumor Growth Inhibition: 53.6%
  Final Tumor Wt. (Mean ± SEM): 553.8 ± 124.3 mg
  # of Toxic Deaths: 1
  Mice with Complete Shrinkage: 0
  Mice with Partial Shrinkage: 0
[2]; 40 mg/kg i.p., q3d × 4
  % Tumor Growth Inhibition: 49.8%
  Final Tumor Wt. (Mean ± SEM): 457.8 ± 113.9 mg
  Deaths: 0
  Mice with Complete Shrinkage: 0
  Mice with Partial Shrinkage: 0
[2]; 80 mg/kg i.p., q3d × 4
  % Tumor Growth Inhibition: 74.3%
  Final Tumor Wt. (Mean ± SEM): 262.2 ± 67.7 mg
  Deaths: 0
  Mice with Complete Shrinkage: 0
  Mice with Partial Shrinkage: 0

## Nc1ccn([C@@H]2CO[C@H](CO)O2)c(=O)n1 [Troxacitabine, (−)-β-L-Dioxolane-Cytidine]
[3]
  maximum tolerated dose: greater than 25 mg/kg
[4]
  complete remissions: 2
  partial remissions: 1
  remission rate (complete + partial): 18%
CCRF-CEM cells; Troxacitabine 20 nM, 72 h continuous exposure
  % Toxicity: 0%
CCRF-CEM cells; Troxacitabine 31 nM, 2 h exposure, MTT at 72 hr
  % Toxicity: 3 ± 3%
CCRF-CEM cells; Troxacitabine 62 nM, 2 h exposure, MTT at 72 hr
  % Toxicity: 12 ± 7%
CCRF-CEM cells; Troxacitabine 100 nM, 72 h continuous exposure
  % Toxicity: 28 ± 5%
CCRF-CEM cells; Troxacitabine 125 nM, 2 h exposure, MTT at 72 hr
  % Toxicity: 11 ± 2%
CCRF-CEM cells; Troxacitabine 250 nM, 2 h exposure, MTT at 72 hr
  % Toxicity: 24 ± 3%
CCRF-CEM cells; Troxacitabine 500 nM, 2 h exposure, MTT at 72 hr
  % Toxicity: 34 ± 6%
CCRF-CEM cells; Troxacitabine 500 nM, 72 h continuous exposure
  % Toxicity: 65 ± 2%
CCRF-CEM cells; Troxacitabine 2500 nM, 72 h continuous exposure
  % Toxicity: 90 ± 2%
CCRF-CEM cells; Troxacitabine 12500 nM, 72 h continuous exposure
  % Toxicity: 98 ± 1%
[1]; 10 mg/kg i.v., qd × 5
  % Tumor Growth Inhibition: 23.9%
  Final Tumor Wt. (Mean ± SEM): 872.7 ± 171.1 mg
  # of Toxic Deaths: 3
  Mice with Complete Shrinkage: 0
  Mice with Partial Shrinkage: 0
[1]; 25 mg/kg i.v., qd × 5
  % Tumor Growth Inhibition: 29.7%
  Final Tumor Wt. (Mean ± SEM): 813.4 ± 57.9 mg
  # of Toxic Deaths: 0
  Mice with Complete Shrinkage: 0
  Mice with Partial Shrinkage: 0
[2]; 10 mg/kg i.v., qd × 5
  Final Tumor Wt. (Mean ± SEM): 11.1 ± 2.1 mg
  Mean % Tumor Shrinkage: 77.5%
  Deaths: 0
  Mice with Complete Shrinkage: 1
  Mice with Partial Shrinkage: 9
[2]; 25 mg/kg i.v., qd × 5
  Final Tumor Wt. (Mean ± SEM): 12.5 ± 1.9 mg
  Mean % Tumor Shrinkage: 72.6%
  Deaths: 0
  Mice with Complete Shrinkage: 1
  Mice with Partial Shrinkage: 9
